Laboratory results from PMC4332989 (Cellular signalling, 2014).
Read-outs that look alike come from different tables or passages of the source.

How the values were obtained:
[1] = target: T1, CB1R (Mus musculus, UniProt P47746); format: cell-based; conditions: for agonist-stimulated enhancement in phosphoERK1/2 levels: over basal (Fig. 4); for agonist-stimulated maximal ERK1/2 phosphorylation: 5 min (Fig. 4B); for stimulated ERK1/2 phosphorylation: 5 min (Fig. 5B)
[2] = tested on: CB1R; assay: On-cell-Western CB1R cell surface density in N18TG2 clones; format: cell-based, mouse
[3] = target: T1, CB1R; assay: cell-based; conditions: for EC50: EC50, inhibition of forskolin-stimulated cAMP accumulation, 1 μM forskolin
[4] = target: CB1R coupling to Gαi3 (Mus musculus, UniProt P47746); conditions: 100 nM
CB1R coupling to Gαi3, sequence (P47746 whole entry): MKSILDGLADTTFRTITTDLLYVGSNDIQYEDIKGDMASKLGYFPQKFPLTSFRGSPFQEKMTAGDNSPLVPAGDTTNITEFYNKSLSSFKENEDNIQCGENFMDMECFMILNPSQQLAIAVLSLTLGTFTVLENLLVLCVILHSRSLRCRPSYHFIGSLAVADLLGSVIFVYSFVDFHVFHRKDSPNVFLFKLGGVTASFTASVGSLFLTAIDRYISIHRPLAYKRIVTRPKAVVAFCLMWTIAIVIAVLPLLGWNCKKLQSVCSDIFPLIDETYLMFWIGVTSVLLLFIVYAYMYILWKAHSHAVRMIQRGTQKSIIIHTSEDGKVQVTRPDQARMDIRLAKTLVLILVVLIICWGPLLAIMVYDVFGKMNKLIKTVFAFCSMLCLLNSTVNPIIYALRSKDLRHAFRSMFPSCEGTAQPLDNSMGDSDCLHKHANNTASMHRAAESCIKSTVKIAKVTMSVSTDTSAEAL

[5] = target: CB1R coupling to Gαi1 (Mus musculus, UniProt P47746); conditions: 100 nM
CB1R coupling to Gαi1, sequence (P47746 whole entry): as above

[6] = target: CB1R coupling to Gαo (Mus musculus, UniProt P47746); conditions: 100 nM
CB1R coupling to Gαo, sequence (P47746 whole entry): as above

[7] = target: CB1R coupling to Gαi2 (Mus musculus, UniProt P47746); conditions: 100 nM
CB1R coupling to Gαi2, sequence (P47746 whole entry): as above

[8] = WT, Control or CRIP1a KD membranes

T1 sequence (P47746 whole entry): as above

O=C(NN=Cc1ccc(O)c(O)c1)c1cc2ccccc2cc1O [Dynasore, 3-Hydroxynaphthalene-2-carboxylic acid (3,4-dihydroxybenzylidene)hydrazide]
effect on CP55940-stimulated phosphorylation of ERK1/2 ([1]; WT, CRIP1a-XS and KD clones, Dynasore 80 μM, 30 min preincubation, CP55940 10 nM): completely blocked

Cc1c(C(=O)c2cccc3ccccc23)c2cccc3c2n1C(CN1CCOCC1)CO3 (stereo not drawn) [WIN55212-2, [2,3-dihydro-5-methyl-3-[(4-morpholinyl)methyl]pyrrolo[1,2,3-de]-1,4-benzoxazin-6-yl](1-naphthyl)methanone]
agonist-stimulated enhancement in phosphoERK1/2 levels ([1]; N18TG2 WT cells, 10 nM, 5 min): 36±5%

C[C@@H]1C[C@@H]([C@H](O)CC2CC(=O)NC(=O)C2)C(=O)[C@@H](C)C1 [cycloheximide]
effect on CB1R plasma membrane density ([2]; CRIP1a XS or KD cells, 50 μM, 2 h pre-treatment (data not shown)): failed to alter

CCCCCCCCCCC[C@@H](C[C@@H]1OC(=O)[C@H]1CCCCCC)OC(=O)[C@H](CC(C)C)NC=O [THL, tetrahydrolipstatin]
effect on total or cell surface levels of CB1R ([2]; THL pretreatment 1 μM, 2 h (data not shown)): did not change

C=C[C@@]1(C)CC(=O)[C@]2(O)[C@@]3(C)[C@@H](O)CCC(C)(C)[C@@H]3[C@H](O)[C@H](OC(C)=O)[C@@]2(C)O1 [forskolin]
stimulation of cAMP accumulation over vehicle ([3]; 1 μM, 4 min, WT, Control, CRIP1a XS, CRIP1a KD): to the same extent in all cell lines tested

CCCCCCC(C)(C)c1ccc([C@@H]2C[C@H](O)CC[C@H]2CCCO)c(O)c1 [CP55940, (−)-cis-3-[2-Hydroxy-4-(1,1-dimethyl-heptyl)phenyl]-trans-4-(3-hydroxypropyl)cyclohexanol]
stimulated [35S]GTPγS binding to Gαi3 ([4]; CRIP1a KD membranes): 103±22 % over basal | stimulated [35S]GTPγS binding to Gαi3 ([4]; CRIP1a XS membranes): 10±12 % over basal | stimulated [35S]GTPγS binding to Gαi3 ([4]; Control clone membranes): 62±21 % over basal | stimulated [35S]GTPγS binding to Gαi3 ([4]; WT membranes): 79±18 % over basal | stimulation of [35S]GTPγS binding to Gαi1 ([5]; CRIP1a XS membranes): 128±54 % above basal | binding of Gαi1 to CB1R following treatment [5, 8]: no differences | enhancement in [35S]GTPγS binding to Gαo ([6]; CRIP1a KD membranes): 79±21 % over basal | enhancement in [35S]GTPγS binding to Gαo ([6]; CRIP1a XS membranes): 4±3 % over basal | enhancement in [35S]GTPγS binding to Gαo ([6]; WT membranes): 49±9 % over basal | agonist-stimulated maximal ERK1/2 phosphorylation ([1]; CRIP1a KD2C cells, 10 nM): 63±8% | agonist-stimulated maximal ERK1/2 phosphorylation ([1]; CRIP1a KD2F cells, 10 nM): 59±4% | stimulated ERK1/2 phosphorylation ([1]; KD2C cells, 10 nM): 68±4% | stimulated ERK1/2 phosphorylation ([1]; KD2C cells, 100 nM): 58±5% | stimulated ERK1/2 phosphorylation ([1]; KD2F cells, 10 nM): 73±5% | stimulated ERK1/2 phosphorylation ([1]; KD2F cells, 100 nM): 62±6% | agonist-stimulated enhancement in phosphoERK1/2 levels ([1]; N18TG2 WT cells, 10 nM, 5 min): 45±6% | time of rapid increase in phosphoERK1/2 levels ([1]; WT, CRIP1a-XS and KD cells, 10 nM): ≤ 5 min | EC50 ([3]; CRIP1a KD cells, 4 min): 0.2 nM | EC50 ([3]; CRIP1a over-expression (XS) cells, 4 min): 1.6 nM | EC50 ([3]; N18TG2 WT cells, 4 min): 3.4 nM | stimulation of [35S]GTPγS binding to Gαi2 ([7]; CRIP1a XS membranes): 753±316 % above basal | binding of Gαi2 to CB1R following treatment [7, 8]: no differences

CCCCC/C=C\C/C=C\C/C=C\C/C=C\CCCC(=O)N[C@H](C)CO [mAEA, (R)-N-(2-Hydroxy-1-methylethyl)-5Z,8Z,11Z,14Z-eicosatetraenamide]
ERK phosphorylation as share of the response observed with a CB1R full agonist ([1]; N18TG2 WT cells, 10 nM, 5 min): ~ 30% | agonist-stimulated enhancement in phosphoERK1/2 levels ([1]; N18TG2 WT cells, 10 nM, 5 min): 12±2% | effect on cAMP accumulation ([3]; all clones, not altered by differences in the expression of CRIP1a (Fig. 7B)): concentration-dependent attenuation
